From patent publication US8207357B2, “Rotaxane compound and antitumor agent” (Wan Station Co., Ltd., priority 2008, dated 2012)

Key:
[1] = tested on: mouse colon tumor cell-derived cell line Colon-26; assay: Antitumor activity, viable cell count (Tetra Color ONE, absorbance 450 nm) in Colon-26; format: cell-based; conditions: Colon-26, 1.25 μM, compared with Control, FIG. 1
Description: (§1) As tumor cells, mouse colon tumor cell-derived cell line Colon-26, human glioblastoma-derived cell line T98G, and human malignant melanoma-derived cell line G361 were used. The tumor cells of each cell line were cultured in RPMI 1640 containing 10% FBS and 0.5% penicillin-streptomycin, as the base medium, in the presence of 5% CO2, at 37° C., under humidity conditions. The tumor cells (5.0×10^4) of each cell line having been cultured to a sufficiently confluent state were seeded in a 1.5 mL tube together with the medium. Each of the rotaxane compounds was dissolved in DMSO as a vehicle (solvent) and was added to the tube in a predetermined concentration so that the total amount is 1000 μL. Then, 100 μL of this was dispensed to each well of a 96-well microplate and was incubated in a CO2 incubator for 24 hours. Subsequently, 10 μL of a viable-cell-counting reagent (Tetra Color ONE, a product of Seikagaku Corporation) was added to each well of the 96-well microplate, and a reaction was performed in the CO2 incubator for 2 hours. The ultraviolet absorbance at 450 nm (control wavelength: 620 nm) was measured […] the reaction with a microplate reader. Note that the higher absorbance means the lager number of viable cells.
The antitumor activities of TRO-A0014 and TRO-A0015 were verified using Colon-26 as tumor cells as in the method of (5-1) described above. […]

[2] = tested on: human malignant melanoma-derived cell line G361; assay: Antitumor activity, viable cell count (Tetra Color ONE, absorbance 450 nm) in G361; format: cell-based; conditions: G361, at every rotaxane concentrations, FIG. 2
Description: as §1
The antitumor activity of TRO-A0010 was verified using T98G and G361 as tumor cells as in the above (5-1).

Row | Substance | cell growth-inhibiting effect at a concentration of 1.25 μM [1] | cell growth-inhibiting effect compared with TRO-A0001 [2]
1 | [2][(3,5-dimethylphenylcarboxyethyl)(3,5-dimethylphenylcarboxypropyl) ammonium-rotaxa-[2,5,8,11,13,16,19,22-octaoxa-1,12(1,2)-dibenzenacyclodocosaphane]] trifluoromethanesulfonate [TRO-A0014] | obviously observed | 
2 | [2][bis(3,5-dimethylphenylcarboxypentyl)ammonium-rotaxa-[2,5,8,11,13,16,19,22-octaoxa-1,12(1,2)-dibenzenacyclodocosaphane]]trifluoromethanesulfonate [TRO-A0010] |  | higher than that of TRO-A0001
